Assay results taken from patent US5413915A (priority 1991, dated 1995).
Marks after values point to notes of the source that are not given here.

Columns and labels:
rat liver microsomes = assay type: biochemical; set-up: unit not given here
Salmonella typhimurium = details: cited from earlier work
[1] = in vivo; cited from earlier work
[2] = in vivo; cited from earlier work; remark: listed apart in the source

Compound	Detector Response, threshold dose (rat liver microsomes)	Mutagenicity (Salmonella typhimurium)	Tumorigen Activity [1]	Teratogen Activity [2]	Tumorigen Activity, assignment based on NCI/NTP carcinogenesis bioassay results [1]	Tumorigen Activity, assignment based on IARC reports [1]	Carcinogenic Status [1]
CC(C)=O [Acetone]	> 50	-	-	-			
NC(CO)(CO)CO [TRIS Buffer, tris(hydroxymethyl-)aminomethane]		-	-	-			
Cc1cc(O)ccc1O [Methylhydroquinone]	30	-	-	-			
[Ca+2] [Calcium(II)]	10	-	+/-	-			
CCN(CC)CC [Triethylamine]		-	-	-			
CO [Methanol]		-	-	+			
Oc1cccc2cccnc12 [8-Hydroxyquinoline]	0.3	+	+	-			
CNC(=O)Oc1cccc2c1OC(C)(C)C2 [Carbofuran (ind.), Carbofuran]		+	-	-			
OCC(O)CO [Glycerol]			-	-			
C1COCCO1 [1,4-Dioxane]	10	-		-	+		
CCCCCC [n-Hexane]		-	-	-			
Cyanacrylate [Cyanacrylate (ind.)]		-	-	-			
CCNc1nc(Cl)nc(NC(C)(C)C#N)n1 [Cyanazine (ind.), Cyanazine]		+	-	-			
ClC(Cl)Cl [CHCl3]		+	+	+			
Cc1cc(-c2cc(C)c(N)c(C)c2)cc(C)c1N [Tetramethylbenzidine]		-	-	-			
CCO [Ethanol]		-	-	+			
O=C(O)COc1ccccc1 [Phenoxyacetate]		-	-	-			
CCOP(=S)(OCC)Oc1nc(Cl)n(C(C)C)n1 [Isozofos (ind.), Isozofos]		-?	-?	-?			
C[n+]1ccc(-c2cc[n+](C)cc2)cc1 [Methyl viologen]		+	+	+			
CNC(=O)Oc1cc(C)c(N(C)C)c(C)c1 [Mexacarbate (ind.), Mexacarbate]		-	+^b	-	-		
ClC1=C(Cl)[C@]2(Cl)[C@@H]3[C@@H]4C[C@@H]([C@H]5O[C@@H]45)[C@@H]3[C@@]1(Cl)C2(Cl)Cl [Dieldrin]		+	+^e	+			
Lecithin [Lecithin, oxidized]		+	+	-			

Compound	Detector Response, threshold dose (rat liver microsomes)	Mutagenicity (Salmonella typhimurium)	Tumorigen Activity [1]	Teratogen Activity [2]	Tumorigen Activity, assignment based on NCI/NTP carcinogenesis bioassay results [1]	Tumorigen Activity, assignment based on IARC reports [1]	Carcinogenic Status [1]
CC(C)C(C(=O)OC(C#N)c1cccc(Oc2ccccc2)c1)c1ccc(Cl)cc1 (stereo not drawn) [Sumicidin (ind.), Sumicidin]	0.5		-?	-?			
O=S(=O)(O)CCCN1CCOCC1 [MOPS Buffer, morpholinopropanesulfonic acid]		-?	-?	-?			
CC(C)O [2-Propanol]		-	-	-		+	
Triton X-100		-	-	-			
NC(N)=O [Urea]		-	+	-			
NC(=O)CI [Iodoacetamide]	0.1		+	-			
CN(C)C=O [Dimethylformamide]		+	-	-			
O=C1O[C@H]([C@@H](O)CO)C(O)=C1O [Ascorbate]		+	-	+			Negative
CCNc1nc(Cl)nc(NCC)n1 [Simazine (ind.), Simazine]		-	+^e	+			
[Cl-].[Na+] [NaCl]		-	-	-			
CNC(=O)Oc1cccc2ccccc12 [Carbaryl (ind.), Carbaryl]			+	+			
CCOC(C)=O [Ethyl Acetate]		-	-	-			
CCc1cccc(CC)c1N(COC)C(=O)CCl [Alachlor (ind.), Alachlor]		-	-	-			
O=S(=O)(F)Cc1ccccc1 [Phenylmethylsulfonyl fluoride]		-	-	-			
CCC1(CC)C(=O)NC(=O)NC1=O [Barbital]		-	-	-			
O=[O+][O-] [Ozone]		-	+^b	+			
Oc1ccc2ccccc2c1 [2-Naphthol]	20		-	-			
CCCCCCCCCCCCOS(=O)(=O)[O-].[Na+] [Sodium laurylsulfate]		-	-	-			
O=S(=O)(c1ccc(Cl)cc1)c1cc(Cl)c(Cl)cc1Cl [Tetradifon (ind.), Tetradifon]		-	-	-			
CNC(=O)Oc1ccccc1OC(C)C [Propoxur (ind.), Propoxur]		-	-	-			
CNC(=O)ON=C(C)SC [Methomyl (ind.), Methomyl]		-	-	-			
CCc1cccc(C)c1N(C(=O)CCl)C(C)COC (stereo not drawn) [Metolachlor (ind.), Metolachlor]		+	-	-			

Compound	Detector Response, threshold dose (rat liver microsomes)	Mutagenicity (Salmonella typhimurium)	Tumorigen Activity [1]	Teratogen Activity [2]	Tumorigen Activity, assignment based on NCI/NTP carcinogenesis bioassay results [1]	Tumorigen Activity, assignment based on IARC reports [1]	Carcinogenic Status [1]
O=C(O)CN(CC(=O)O)CC(=O)O [Nitrilotriacetate]		-	+	+			
C[S+](C)[O-] [Dimethylsulfoxide]		-	-	+			
O=C(O)COc1ccc(Cl)cc1Cl [2,4-D]		-		+	-	+	
O=C(O)CN(CCN(CC(=O)O)CC(=O)O)CC(=O)O [EDTA]		-	-	+			
CCOP(=S)(NC(C)C)Oc1ccccc1C(=O)OC(C)C (stereo not drawn) [Isofenphos (ind.), Isofenphos]		-	-	-			
O=C(O)CC(O)(CC(=O)O)C(=O)O [Citrate]			-	-			
Oc1ccc(-c2ccccc2)cc1 [p-Hydroxybiphenyl]		-	+	-?			
Magnesium(II)		-	-	-			
Lecithin [Lecithin, fresh]		-	-	-			
c1ccc2ccccc2c1 [Naphthalene]			+/-	+			
Cc1ccccc1 [Toluene]			-	+			
C=CC(N)=O [Acrylamide]	0.2		+	-			
COc1c(Cl)ccc(Cl)c1C(=O)O [Dicamba (ind.), Dicamba]		+	-	-			
S=C=S [CS2]		+	-	+			
BrCCBr [1,2-Dibromoethane]		+	+	-			
O=c1cc(-c2ccccc2)oc2ccc3ccccc3c12 [5,6-Naphthoflavone]		-	-	-			
C[n+]1ccc(-c2cc[n+](C)cc2)cc1 [Paraquat (ind.), Paraquat]		+	-	+			
OC[C@@H](O)[C@@H](O)[C@H](O)[C@H](O)CO [Mannitol]		-	-	-			
Cn1c(=O)c2[nH]cnc2n(C)c1=O [Theophylline]			-	+			
c1cnc2c(c1)ccc1cccnc12 [o-Phenanthroline]		-	-	-			
CCCCO [1-Butanol]		-	-	-			
ClC(Cl)=C(Cl)Cl [Tetrachloroethylene]		+	+	+			
